Experimental data: patent publication US4124726A, “Anti-inflammatory agent of benzoyl derivative” (priority 1976, dated 1978)
Where two headings read alike, the source gives them in different places.

Key:
[1] = tested on: platelet aggregation; experiment: blood platelet aggregation inhibition, collagen as inducer; format: cell-based; conditions: 10^-4 mole, rabbit PRP; for inhibition at 100 µM: Oryctolagus cuniculus, Platelet, read-out: Blood platelet agg. inh. (percentage inhibition of platelet aggregation)
Source text: Blood platelet aggregation inhibiting effect
Male rabbits (Japan original white strain 3.3 to 3.6 kg) were anesthetized with Thiopental sodium and blood was sampled from the carotid artery.

[2] = in vivo; conditions: mouse, po
Method: Each sample was dissolved in olive oil or dispersed in 1% Tween 20 aqueous solution.

[3] = tested on: thrombosis; experiment: inhibiting effect on thrombosis (arterio-venous by-pass, silk thread); format: in vivo, SD type male rats; conditions: for inhibition in vivo at 100 mg/kg: Rattus norvegicus, read-out: Thrombosis inh.
Method: Inhibiting effect on thrombosis:
The inhibiting effects of the samples of the invention on thrombosis were tested by the following test method.
A 0.5 ml of 50 μ/ml of the heparin physiological saline was added through the polyethylene tube before the first blood circulation. After the blood circulation for 15 minutes, the circulation was stopped in the middle of the tubing at artery side with a pinch cock.
Then, 0.2 ml of the heparin physiological saline was added to remove the blood coagulates on the tubing wall and another new polyethylene tubing filled with the heparin solution and containing a piece of new silk thread was attached between the venous and artery tubing ends.
The blood circulation was reestablished by opening the pinch cock. After 15 minutes, the wet weight of thrombus on the silk thread was similarly measured. In the same manner, the third circulation was performed and wet weight of thrombus measured.
The amount of thrombus was given by the equation A. [formula] Each sample was suspended in an aqueous solution of sodium carboxymethyl cellulose and the oral dose of the suspension (100 mg/kg) was performed at 5 hours before the first blood circulation. The amount of thrombus after the oral dose of the sample was calculated in the same manner as that of control circulations.
The thrombosis inhibition rate was given by the equation B. [formula]

[4] = tested on: painful stretchings induced by acetic acid; experiment: acetic acid induced stretching (analgesic effect); conditions: for Analgesic (percentage diminution of times of painful stretchings): 100 mg/kg oral, 0.7% acetic acid i.p., mice; for inhibition in vivo at 100 mg/kg: Mus musculus, po, read-out: Analgesic (percentage diminution of times of painful stretchings)
Method: Each sample was orally administrated in the dosage of 100 mg/kg before injection of acetic acid.

[5] = tested on: carragheenin edema; experiment: acute carragheenin edema inhibition (anti-inflammatory effect); format: in vivo, male rats; conditions: for Anti-inf. (edema inhibition rate) / inhibition in vivo at 100 mg/kg: 100 mg/kg oral; for inhibition in vivo at 100 mg/kg / ED50: Rattus norvegicus; for inhibition in vivo at 100 mg/kg: read-out: Anti-inf. (edema inhibition rate); for ED50: read-out: 50% inhibition rate ED50
Method: The edema was induced by subcutaneous injection of 1% carraheenin suspension in saline to the hind paws of male rats weighing 150 to 180 g. Each sample was orally given at the dosage of 100 mg/kg just before the inoculation of carragheenin.

[6] = 100 mg/kg oral, 5 hours before first circulation, rats
[7] = carragheenin edema, rats, Table 2
[8] = oral, carragheenin edema, rats, Table 2

| SMILES | Blood platelet agg. inh. (percentage inhibition of platelet aggregation) [1] [%] | LD50 at 72 h [2] [mg/kg] | Analgesic (percentage diminution of times of painful stretchings) [4] [%] | inhibition in vivo at 100 mg/kg [3, 6] [%] | also measured |
| --- | --- | --- | --- | --- | --- |
| COc1ccc(C(=O)C(=O)c2ccccc2)cc1 | 20.1 | 10000 | 10.2 |  | Thrombosis inh. [3, 6]: 18.3%; Anti-inf. (edema inhibition rate) [5, 7]: 43.9% |
| CCCCCCc1ccc(C(=O)c2ccc(C)cc2C)cc1 [Active ingredient No. 4] |  | 4000 |  | 15.9 | inhibition at 100 µM [1]: 20.5%; inhibition in vivo at 100 mg/kg [4]: 16.3%; inhibition in vivo at 100 mg/kg [5, 7]: 44.2% |
| CCCCc1ccc(C(=O)c2ccccc2F)cc1 [compound 8] | 24.0 |  | 14.8 | 38 | ED50 [5, 8]: 38 mg/kg |
| CCCCc1ccc(C(=O)c2ccccc2)cc1 [compound 19] | 18.6 | 2400 | 30.1 | 7.9 | ED50 [5, 8]: 25 mg/kg |
| CCCc1ccc(C(=O)c2ccccc2)cc1 [compound 20] | 36.6 | 2000 | 17.3 | 4.1 |  |
| CC(C)c1ccc(C(=O)c2ccccc2)cc1 [compound 21] | 8.6 | 2000 | 16.1 | 5.4 |  |
| CC(C)(C)c1ccc(C(=O)c2ccccc2)cc1 [compound 22] | 9.5 | 2000 | 8.2 | 7.9 |  |
| O=C(c1ccccc1)c1ccccc1 [compound 27] | 25.7 | 3700 | 13.2 |  | Thrombosis inh. [3, 6]: 25.9%; Anti-inf. (edema inhibition rate) [5, 7]: 47.7%; ED50 ([5]; po): 120 mg/kg |
| COc1ccc(C(=O)c2ccccc2)cc1 [compound 28] | 20.4 | > 10000 | 4.2 |  | inhibition in vivo at 100 mg/kg ([3]; po): 7.3%; Anti-inf. (edema inhibition rate) [5, 7]: 44.1% |
| Cc1cc(C)c(C(=O)c2ccccc2)c(C)c1 [compound 30] |  | 1500 |  | 44.8 | inhibition at 100 µM [1]: 8.7%; inhibition in vivo at 100 mg/kg [4]: 13.4%; inhibition in vivo at 100 mg/kg [5, 7]: 64.7%; ED50 [5, 8]: 45 mg/kg |
| Cc1cc(C)c(C(=O)c2ccccc2)cc1C [compound 32] | 12.4 | 2000 | 26.2 | 25 |  |
| CCCCc1ccc(C(=O)c2ccc(C)cc2)cc1 [compound 35] | 11.3 | > 10000 |  | 26.5 |  |
| Cc1ccc(C(=O)c2ccccc2)c(C)c1 [compound 37] | 17.4 | 1000 | 9.8 | 5.3 |  |
| Cc1ccc(C)c(C(=O)c2ccccc2)c1 [compound 38] | 20.9 | 1000 | 18.0 | 8.3 | ED50 [5, 8]: 170 mg/kg |
| CCCCc1ccc(C(=O)c2ccccc2C)cc1 [compound 40] | 11.9 | 2000 | 20.3 |  | ED50 [5, 8]: 120 mg/kg |
| CCCCc1ccc(C(=O)c2ccc(CCCC)cc2)cc1 [compound 43] | 3.5 | > 10000 |  | 86 |  |

| SMILES | Blood platelet agg. inh. (percentage inhibition of platelet aggregation) [1] [%] | LD50 at 72 h [2] [mg/kg] | Analgesic (percentage diminution of times of painful stretchings) [4] [%] | inhibition in vivo at 100 mg/kg [3, 6] [%] | also measured |
| --- | --- | --- | --- | --- | --- |
| CCCCc1ccc(C(=O)c2ccccc2Cl)cc1 [compound 44] | 10.5 | 2000 | 15.6 |  | ED50 [5, 8]: 70 mg/kg |
| CCCCCc1ccc(C(=O)c2ccc(OC)cc2)cc1 [compound 45] | 17.7 | 5000 | 12.5 |  | ED50 [5, 8]: > 400 mg/kg |
| CCCCc1ccc(C(=O)c2ccc(F)cc2C)cc1 [compound 46] | 16.5 | 2000 | 13.4 |  | ED50 [5, 8]: 400 mg/kg |
| O=C(Cc1ccccc1)c1ccccc1 [compound 47] | 18.3 |  | 13.1 |  | Thrombosis inh. [3, 6]: 15.6%; Anti-inf. (edema inhibition rate) [5, 7]: 20.9% |
| O=C(C(=O)c1ccccc1)c1ccccc1 [compound 53] | 10.1 |  | 14.2 |  | Thrombosis inh. [3, 6]: 19.2%; Anti-inf. (edema inhibition rate) [5, 7]: 20.3% |
| Cc1ccc(C(=O)C(=O)c2ccccc2)cc1 [compound 54] | 15.4 |  | 11.3 |  | Thrombosis inh. [3, 6]: 20.3%; Anti-inf. (edema inhibition rate) [5, 7]: 25.5% |
| COc1ccc(C(=O)Cc2ccccc2)cc1 [compound 57] | 12.5 |  |  | 6.5 |  |
| CCCCOc1ccc(C(=O)Cc2ccc(Cl)cc2)cc1 [compound 61] | 15.8 |  |  | 8.5 |  |
| CCCCCCOc1ccc(C(=O)Cc2ccc(Cl)cc2)cc1 [compound 62] | 12.3 |  |  | 7.8 |  |
| CCCc1ccc(C(=O)c2ccc(Cl)cc2)cc1 [compound 63] | 15.6 |  |  | 6.2 |  |
| CCCCCCCCCc1ccc(C(=O)c2ccccc2)cc1 [compound 70] | 17.2 |  |  | 10 |  |
| O=C(c1ccccc1)c1ccc(C2CCCCC2)cc1 [compound 73] |  | 6000 |  | 28.8 | inhibition at 100 µM [1]: 20.3%; inhibition in vivo at 100 mg/kg [4]: 10%; inhibition in vivo at 100 mg/kg [5, 7]: 32.1% |
| CCCCCc1ccc(C(=O)c2ccc(C)cc2)cc1 [compound 84] | 8.6 | 10000 | 15.3 | 16 |  |
| CCCc1ccc(C(=O)c2ccccc2C)cc1 [compound 90] | 10.8 |  |  | 15 |  |
| Cc1ccccc1C(=O)c1c(C)c(C)cc(C)c1C [compound 91] | 14.7 |  |  | 31 |  |
